Data published in US8772319B2 (priority 2004, dated 2014).
Several values for one entry are separate records, joined by “and”; a condition that tells them apart may be missing. Identical values can stand only once. Like-named read-outs stand apart in the source and are kept apart here.

Key:
[1] = biological target: T1, human dopamine transporter (hDAT) (Homo sapiens, UniProt Q01959); assay: biochemical; type: binding
[2] = biological target: T2, human serotonin transporter (hSERT) (Homo sapiens, UniProt P31645); assay: biochemical; conditions: Table 5, read-out: SERT binding affinity Ki
T2 sequence (P31645 whole entry): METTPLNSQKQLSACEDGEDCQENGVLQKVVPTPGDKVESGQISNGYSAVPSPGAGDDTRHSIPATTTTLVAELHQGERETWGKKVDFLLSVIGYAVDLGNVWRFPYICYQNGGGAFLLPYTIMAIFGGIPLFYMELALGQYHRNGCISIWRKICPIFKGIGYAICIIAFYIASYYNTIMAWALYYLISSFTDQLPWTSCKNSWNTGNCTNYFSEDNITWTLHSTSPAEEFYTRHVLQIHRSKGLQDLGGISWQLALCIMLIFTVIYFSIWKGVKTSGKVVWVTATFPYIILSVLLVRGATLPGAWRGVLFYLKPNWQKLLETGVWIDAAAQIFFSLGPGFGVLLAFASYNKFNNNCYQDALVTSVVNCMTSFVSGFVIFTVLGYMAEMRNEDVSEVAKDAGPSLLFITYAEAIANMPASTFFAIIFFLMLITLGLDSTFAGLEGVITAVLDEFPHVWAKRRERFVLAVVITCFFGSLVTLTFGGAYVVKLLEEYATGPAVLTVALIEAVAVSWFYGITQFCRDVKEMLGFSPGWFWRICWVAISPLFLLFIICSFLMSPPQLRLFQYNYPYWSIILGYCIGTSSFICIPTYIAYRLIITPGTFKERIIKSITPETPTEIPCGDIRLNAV

[3] = biological target: T1, human dopamine transporter (hDAT); assay: cell-based; conditions: for IC50: Reuptake Inhibition [3H]DA IC50, Table 6; for Discrimination Ratios (DR) [3H]DA reuptake/DAT binding: Table 6
[4] = biological target: T2, human serotonin transporter (hSERT); assay: cell-based; conditions: Reuptake Inhibition [3H]5-HT IC50, Table 6
[5] = biological target: T3, human norepinephrine transporter (hNET) (Homo sapiens, UniProt P23975); assay: cell-based; conditions: Table 6; read-out: Reuptake Inhibition [3H]NE IC50
T3 sequence (P23975 whole entry): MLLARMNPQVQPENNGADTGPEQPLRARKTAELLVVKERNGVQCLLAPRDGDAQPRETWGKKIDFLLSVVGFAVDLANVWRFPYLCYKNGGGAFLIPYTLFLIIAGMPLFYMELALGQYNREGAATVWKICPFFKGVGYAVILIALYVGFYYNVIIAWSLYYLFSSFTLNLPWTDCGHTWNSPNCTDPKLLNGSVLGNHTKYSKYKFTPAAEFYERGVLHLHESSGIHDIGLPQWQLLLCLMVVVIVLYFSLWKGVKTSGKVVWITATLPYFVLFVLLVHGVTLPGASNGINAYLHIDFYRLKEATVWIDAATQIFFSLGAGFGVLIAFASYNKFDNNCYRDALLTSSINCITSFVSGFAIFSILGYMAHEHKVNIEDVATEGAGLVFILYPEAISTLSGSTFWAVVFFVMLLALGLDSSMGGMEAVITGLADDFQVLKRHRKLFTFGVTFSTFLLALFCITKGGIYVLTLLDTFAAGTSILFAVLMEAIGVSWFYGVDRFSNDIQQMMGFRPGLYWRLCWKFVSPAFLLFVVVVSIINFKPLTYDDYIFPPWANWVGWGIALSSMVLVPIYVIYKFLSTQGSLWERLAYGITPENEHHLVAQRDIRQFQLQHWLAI

[6] = biological target: T4, D1 receptor (Homo sapiens, UniProt P21728); assay: D1 receptor binding, LHD1 cells, [3H]SCH 23,390
T4 construct: expressed in transfected cells; host or cells: LHD1 cells
T4 sequence (P21728 whole entry): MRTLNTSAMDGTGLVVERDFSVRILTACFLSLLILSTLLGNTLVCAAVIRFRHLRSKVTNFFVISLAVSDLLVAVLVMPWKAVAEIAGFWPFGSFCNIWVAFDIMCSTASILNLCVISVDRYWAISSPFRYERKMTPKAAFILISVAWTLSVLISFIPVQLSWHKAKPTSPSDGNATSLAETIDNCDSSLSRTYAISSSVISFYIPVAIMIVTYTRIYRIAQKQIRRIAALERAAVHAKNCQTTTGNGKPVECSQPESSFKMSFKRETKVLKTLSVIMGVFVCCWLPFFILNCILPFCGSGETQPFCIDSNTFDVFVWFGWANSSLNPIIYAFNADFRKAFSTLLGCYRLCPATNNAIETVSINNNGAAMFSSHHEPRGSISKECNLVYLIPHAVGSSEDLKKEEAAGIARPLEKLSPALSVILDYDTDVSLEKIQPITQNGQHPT

[7] = biological target: T5, D2 receptor (Homo sapiens, UniProt P14416); assay: D2 receptor binding, CHOp- cells, [3H]YM-09151-2
T5 construct: expressed in transfected cells; host or cells: CHOp- cells (CHOp-D2)
T5 sequence (P14416 whole entry): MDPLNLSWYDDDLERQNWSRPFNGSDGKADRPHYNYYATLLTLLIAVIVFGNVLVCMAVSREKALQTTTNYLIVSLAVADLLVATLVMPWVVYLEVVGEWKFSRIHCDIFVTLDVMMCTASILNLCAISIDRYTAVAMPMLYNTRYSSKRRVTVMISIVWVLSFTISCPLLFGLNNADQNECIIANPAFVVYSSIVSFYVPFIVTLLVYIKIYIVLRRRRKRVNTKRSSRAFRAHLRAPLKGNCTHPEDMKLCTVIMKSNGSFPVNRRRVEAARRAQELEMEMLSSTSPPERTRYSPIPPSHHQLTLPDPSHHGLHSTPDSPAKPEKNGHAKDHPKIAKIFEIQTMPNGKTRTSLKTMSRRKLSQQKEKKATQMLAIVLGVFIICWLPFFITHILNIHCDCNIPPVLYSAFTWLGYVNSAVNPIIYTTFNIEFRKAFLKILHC

[8] = biological target: T6, D3 receptor (Homo sapiens, UniProt P35462); assay: D3 receptor binding, CHOp- cells, [3H]YM-09151-2
T6 construct: expressed in transfected cells; host or cells: CHOp- cells (CHOp-D3)
T6 sequence (P35462 whole entry): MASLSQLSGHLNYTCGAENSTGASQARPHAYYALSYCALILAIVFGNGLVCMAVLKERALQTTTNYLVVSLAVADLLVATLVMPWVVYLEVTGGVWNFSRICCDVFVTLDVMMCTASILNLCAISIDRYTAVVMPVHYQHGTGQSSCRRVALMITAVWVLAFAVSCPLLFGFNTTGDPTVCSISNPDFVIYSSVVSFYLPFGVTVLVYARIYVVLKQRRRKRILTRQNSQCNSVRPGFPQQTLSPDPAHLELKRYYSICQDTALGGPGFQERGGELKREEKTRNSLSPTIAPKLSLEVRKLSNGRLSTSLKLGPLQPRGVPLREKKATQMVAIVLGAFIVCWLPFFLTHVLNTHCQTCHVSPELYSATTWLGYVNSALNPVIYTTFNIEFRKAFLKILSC

[9] = biological target: T7, 5-HT1A receptor (Homo sapiens, UniProt P08908); assay: 5-HT1A receptor binding, HA7 cells, [3H]8-OH-DPAT; conditions: for binding for 5-HT1A: Table 7
T7 construct: expressed in transfected cells; host or cells: HA7 cells
T7 sequence (P08908 1-422): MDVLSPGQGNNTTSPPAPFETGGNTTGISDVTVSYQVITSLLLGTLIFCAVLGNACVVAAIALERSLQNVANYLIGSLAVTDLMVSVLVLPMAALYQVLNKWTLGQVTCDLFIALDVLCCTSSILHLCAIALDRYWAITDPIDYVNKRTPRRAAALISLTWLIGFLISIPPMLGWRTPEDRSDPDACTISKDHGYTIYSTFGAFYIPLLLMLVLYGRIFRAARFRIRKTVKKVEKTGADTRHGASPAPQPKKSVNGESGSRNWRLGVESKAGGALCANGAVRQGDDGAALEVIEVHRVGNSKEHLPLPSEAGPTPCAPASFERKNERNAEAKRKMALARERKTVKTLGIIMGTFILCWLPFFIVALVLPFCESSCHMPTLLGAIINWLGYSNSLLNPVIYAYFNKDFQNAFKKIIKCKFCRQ

[10] = biological target: T8, 5-HT2A receptor (Rattus norvegicus, UniProt P14842); assay: 5-HT2A receptor binding, NIH-3T3-GF6 cells, [3H]ketanserin
T8 construct: expressed in transfected cells; host or cells: NIH-3T3-GF6 cells
T8 sequence (P14842 whole entry): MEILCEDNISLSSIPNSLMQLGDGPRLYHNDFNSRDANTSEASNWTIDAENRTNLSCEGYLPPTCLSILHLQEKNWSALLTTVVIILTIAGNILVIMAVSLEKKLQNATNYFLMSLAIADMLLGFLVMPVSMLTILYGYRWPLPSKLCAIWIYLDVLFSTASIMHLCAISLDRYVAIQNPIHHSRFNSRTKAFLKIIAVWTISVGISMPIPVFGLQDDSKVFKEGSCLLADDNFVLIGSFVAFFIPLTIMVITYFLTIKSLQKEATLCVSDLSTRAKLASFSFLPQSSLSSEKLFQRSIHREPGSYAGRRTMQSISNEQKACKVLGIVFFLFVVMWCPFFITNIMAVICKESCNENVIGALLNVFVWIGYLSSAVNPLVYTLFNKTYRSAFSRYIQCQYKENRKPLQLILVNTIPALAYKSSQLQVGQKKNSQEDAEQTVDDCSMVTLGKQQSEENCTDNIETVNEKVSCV

[11] = biological target: T9, 5-HT2C receptor (Rattus norvegicus, UniProt P08909); assay: 5-HT2C receptor binding, NIH-3T3-P cells, [3H]mesulergine
T9 construct: expressed in transfected cells; host or cells: NIH-3T3-P cells
T9 sequence (P08909 33-460): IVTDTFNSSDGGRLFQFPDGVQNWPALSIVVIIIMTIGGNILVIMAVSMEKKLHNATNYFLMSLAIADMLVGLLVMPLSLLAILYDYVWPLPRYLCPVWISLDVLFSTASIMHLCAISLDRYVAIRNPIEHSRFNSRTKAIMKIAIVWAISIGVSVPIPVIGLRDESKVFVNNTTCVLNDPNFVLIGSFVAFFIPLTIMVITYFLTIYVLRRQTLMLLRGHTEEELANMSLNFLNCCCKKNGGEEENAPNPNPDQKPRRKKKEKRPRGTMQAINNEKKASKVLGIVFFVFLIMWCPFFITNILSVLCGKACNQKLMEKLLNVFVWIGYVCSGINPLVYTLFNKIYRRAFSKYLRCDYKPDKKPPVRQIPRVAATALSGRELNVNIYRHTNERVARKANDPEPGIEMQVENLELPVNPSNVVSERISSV

[12] = biological target: T5, D2 receptor; assay: cell-based; conditions: for IC50: read-out: D2 Antagonist activity IC50
[13] = biological target: T6, D3 receptor; assay: Inhibition of quinpirole-stimulated mitogenesis ([3H]thymidine incorporation), CHOp-D3 cells; type: cell-based
[14] = test system: male Swiss-Webster mice; assay: Locomotor activity, compound alone, 1-h session; type: in vivo, mouse
Method: (§1) 3. Locomotor Activity. […] Panels of infrared beams (16 beams) and corresponding photodetectors were located in the horizontal direction along the sides of each activity chamber. […] Just prior to placement in the apparatus, all mice received a saline injection IP. In all studies, horizontal activity (interruption of 1 photocell beam) was measured for 1-h within 10-min periods. Testing was conducted with one mouse per activity chamber. […] Plot the mean (±SEM) maximal stimulant activity (total counts in the 30 min period divided by 3) vs dose. Perform a log10 transformation of the 30 min period average counts for individual subjects to homogenize variances for subsequent analyses. […] Fit the 30 min period average counts across subjects to a function of log10 dose using least-squares curve-fitting analyses (i.e. TableCurve software from Jandel). Estimate the maximum effect from the resultant dose-response curve. […] Determine the ED50 (dose that produces ½ maximal stimulant activity) from a linear regression analysis of the ascending portion (up to the dose that produces a maximal effect) of the curve. […] Plot the mean (±SEM) activity (total counts in the 30 min period divided by 3) vs dose. Perform a log10 transformation of the 30 min period average counts for individual subjects to homogenize variances for subsequent analyses. Conduct an ANOVA and contrast (specified a priori) each dose of the test compound to the vehicle to determine significant (p<0.05) dose effects. Conduct a linear least-squares regression analysis; regress the min period average counts across subjects over the descending portion of the curve against the log10 dose of the test compound. […] Perform a log10 transformation of the 30 min period average counts for individual subjects to homogenize variances for subsequent analyses. […] Conduct a linear least-squares regression analysis; regress the 30 min period average counts across subjects over the descending portion of the curve against the log10 dose of the test compound. […] Locomotor Activity 8-hour time course/dose response study. […] A panel of infrared beams (16 beams) and corresponding photodetectors were located in the horizontal direction along the sides of each activity chamber. A 7.5-W incandescent light above each chamber provided dim illumination. Fans provided an 80-dB ambient noise level within the chamber. […] In all studies, horizontal activity (interruption of photocell beams) was measured for 8-h within 10-min periods, beginning at 0800 hrs (2 hours after lights on). Testing was conducted with one mouse per activity chamber. Compound alone study.

[15] = test system: male Swiss-Webster mice; assay: Cocaine/compound interaction study on locomotor activity; type: in vivo, mouse; conditions: for Attenuation of cocaine-induced LMA: 20 mg/kg of cocaine; for AD50, dose attenuating cocaine-induced stimulation by 50%: Table 8, ligand-cocaine interaction study, 20 mg/kg cocaine IP
[16] = test system: male Swiss-Webster mice; assay: Locomotor activity 8-hour time course/dose response study; conditions: for ED50: Mus musculus, ip, 8 h, read-out: ED50, dose producing 1/2 maximal stimulant activity (S, stimulation); for ME/CME, Maximal Effect/Cocaine Maximal Effect / mode of action / ID50, dose producing 1/2 maximal depressant activity (I, inhibition): Table 9, 8 hours; for mode of action: ligand alone study; for ID50, dose producing 1/2 maximal depressant activity (I, inhibition): mouse, IP
Method: as §1

[17] = biological target: T3, human norepinephrine transporter (hNET); assay: biochemical; conditions: Table 5; [125I]RTI-55; oxalate salts; read-out: NET binding affinity Ki
[18] = Table 7, LHD1 cells, [3H]SCH 23,390, read-out: D1 Affinity Ki
[19] = Table 7, CHOp- cells, [3H]YM-09151-2, read-out: D2 Affinity Ki
[20] = Table 7, CHOp- cells, [3H]YM-09151-2, read-out: D3 Affinity Ki
[21] = Table 7, rat receptors, NIH-3T3-GF6 cells, [3H]ketanserin, read-out: 5-HT2A Affinity Ki
[22] = Table 7, rat receptors, [3H]mesulergine, read-out: 5-HT2C Affinity Ki

T1 sequence (Q01959 whole entry): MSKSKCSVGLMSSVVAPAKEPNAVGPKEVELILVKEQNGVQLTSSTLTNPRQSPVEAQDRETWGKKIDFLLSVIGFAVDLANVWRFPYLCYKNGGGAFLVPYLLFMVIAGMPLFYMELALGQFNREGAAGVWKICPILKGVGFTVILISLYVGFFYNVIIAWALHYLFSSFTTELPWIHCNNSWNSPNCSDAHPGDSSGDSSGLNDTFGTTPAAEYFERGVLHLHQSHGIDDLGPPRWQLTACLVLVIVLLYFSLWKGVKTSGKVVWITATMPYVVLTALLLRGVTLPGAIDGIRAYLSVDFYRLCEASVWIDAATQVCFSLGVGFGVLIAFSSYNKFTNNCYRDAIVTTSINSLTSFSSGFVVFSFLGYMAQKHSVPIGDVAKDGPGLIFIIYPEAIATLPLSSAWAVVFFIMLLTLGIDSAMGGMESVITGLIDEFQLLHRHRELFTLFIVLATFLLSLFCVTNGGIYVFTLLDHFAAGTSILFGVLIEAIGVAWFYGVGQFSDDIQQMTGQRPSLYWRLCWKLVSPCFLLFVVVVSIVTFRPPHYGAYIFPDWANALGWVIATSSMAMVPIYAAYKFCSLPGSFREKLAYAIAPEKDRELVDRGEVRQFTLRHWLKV

Row | Compound | Binding Ratios NET/DAT ([1]; Table 5) | Binding Ratios SERT/DAT ([1]; Table 5) | Ki ([2]; [125I]RTI-55, oxalate salts) [µM] | IC50 [3] [nM] | Discrimination Ratios (DR) [3H]DA reuptake/DAT binding [3] | IC50 [4] [µM] | IC50 [5] [nM] | Ki [6, 18] [nM] | Ki [7, 19] [nM] | Ki [8, 20] [nM] | Ki [9] [nM] | Ki [10, 21] [nM] | IC50 [12] [nM] | IC50 [13] [nM] | Attenuation of cocaine-induced LMA [15] | Ki [6] [nM] | Ki [7] [nM] | Ki [8] [nM] | Ki [10] [nM] | Ki [11] [µM] | other results
1 | Fc1ccc(C(OCCCCN2CCNC(c3ccccc3)C2)c2ccc(F)cc2)cc1 (stereo not shown) [Compound 28, 2-Phenyl-4-[4-[bis(4-fluorophenyl)methoxy]butyl]piperazine] | 49.9 | 19.6 | 0.0746 ± 0.0058 | 550 ± 140 | 144 and 144.4 | 0.7 ± 0.26 | 290 ± 50 | 6150 ± 541 | 715 ± 404 | 677 ± 262 | 2250 ± 359 | 1490 ± 352 | 164 | 629 | Attenuation | – | – | – | – | – | Ki ([1]; Table 5, [125I]RTI-55, oxalate salts, read-out: DAT binding affinity Ki): 3.81 ± 0.84 nM; Ki [11, 22]: 6.7 ± 0.437 µM; ED50 ([14]; Mus musculus, ip, 1 h, read-out: ED50, dose producing 1/2 maximal stimulant activity (S, stimulation)): 1.52 mg/kg; mode of action ([14]; Table 8, ligand alone study): monophasic; ME/CME, Maximal Effect/Cocaine Maximal Effect ([14]; Table 8, mouse locomotor activity): 0.30; effect on spontaneous LMA ([14]; mouse, compound alone): significant increase; AD50, dose attenuating cocaine-induced stimulation by 50% [15]: 50.27 mg/kg; ED50 [16]: 7.6 mg/kg; ME/CME, Maximal Effect/Cocaine Maximal Effect [16]: 0.30; mode of action [16]: biphasic; ID50, dose producing 1/2 maximal depressant activity (I, inhibition) [16]: 36.4/I^e,f mg/kg
2 | Fc1ccc(C(OCCCCN2CCN(c3ccccc3)CC2)c2ccc(F)cc2)cc1 [Compound 29, 1-Phenyl-4-[4-[bis(4-fluorophenyl)methoxy]butyl]piperazine] | 3.3 | 0.8 | – | – | 23.2 | – | – | 2430 ± 367 | 447 ± 73.9 | 242 ± 7.41 | 285 ± 76.4 | 404 ± 52.6 | 120 | 44.6 | – | – | – | – | – | – | Ki ([11]; Table 7, bound given in μM, read-out: 5-HT2C Affinity Ki): > 10 µM
3 | Fc1ccc(C(OCCCCN2CCN(c3ccc(Cl)cc3)CC2)c2ccc(F)cc2)cc1 [Compound 34, 1-(4-Chlorophenyl)-4-[4-[bis(4-fluorophenyl)methoxy]butyl]piperazine] | 7.6 | 0.7 | – | – | 23.4 | – | – | – | – | – | > 10000 | – | – | 2.55 | – | > 10000 | > 10000 | 340 ± 143 | 1150 ± 44.2 | > 10 | antagonistic activity at D3 site ([13]; Table 7): selective and strong antagonistic activity
4 | COc1ccccc1N1CCN(CCCCOC(c2ccc(F)cc2)c2ccc(F)cc2)CC1 [Compound 35, 1-(2-Methoxyphenyl)-4-[4-[bis(4-fluorophenyl)methoxy]butyl]piperazine] | 3.5 | 9.7 | 0.255 ± 0.089 | 301 ± 16 | 11.5 | 1.23 ± 0.024 | 176 ± 79 | – | – | – | 34.9 ± 6.7 | – | 84.4 | 56.7 | Attenuation | 777 ± 185 | 134 ± 21.7 | 118 ± 31.9 | 698 ± 204 | 3 ± 0.0731 | Ki [1]: 26.2 ± 2.5 nM; Ki [17]: 92 ± 11 nM; binding for 5-HT1A [9]: moderate binding
5 | Fc1ccc(C(OCCCCN2CCN(c3ccccn3)CC2)c2ccc(F)cc2)cc1 [Compound 39, 1-[4-[Bis(4-fluorophenyl)methoxy]butyl]-4-pyridin-2-ylpiperazine] | 12.3 | >1190 | – | 386 ± 55 | 46 | – | 2230 ± 710 | – | – | – | 53.5 ± 8.62 | – | – | 955 | Attenuation | 597 ± 19.4 | 282 ± 67.7 | 453 ± 163 | 498 ± 47.9 | 3.45 ± 1.08 | Ki [1]: 8.4 ± 4 nM; Ki ([2]; bound given in μM): > 10 µM; Ki [17]: 103 ± 37 nM; IC50 ([4]; bound given in μM): > 10 µM; binding for 5-HT1A [9]: moderate binding; D2 functional activity, marked agonist (footnote d) ([12]; Table 7, CHOp-D2 cells, [3H]thymidine incorporation, agonist): 196 ± 62.8^d nM; ED50, dose producing 1/2 maximal stimulant activity (S, stimulation) ([14]; Table 8, mouse, IP, ligand alone, 1-h session): no activity; AD50, dose attenuating cocaine-induced stimulation by 50% [15]: 62.1 mg/kg; ED50 [16]: 38 mg/kg; ME/CME, Maximal Effect/Cocaine Maximal Effect [16]: >0.35; mode of action [16]: biphasic; ID50, dose producing 1/2 maximal depressant activity (I, inhibition) [16]: 60.3/I^e,i mg/kg
6 | O=C(c1ccccc1)N1CCN(CCCCOC(c2ccc(F)cc2)c2ccc(F)cc2)CC1 [Compound 40, 1-Benzoyl-4-[1-[bis(4-fluorophenyl)methoxy]-4-butyl]piperazine] | 18.5 | 4.4 | 0.087 ± 0.043 | 640 ± 240 | 32.5 | 2.17 ± 0.37 | 32 ± 10 | 6640 ± 313 | 95.5 ± 19.7 | 119 ± 49.8 | 1560 ± 271 | 4800 ± 2090 | 183 | 222 | – | – | – | – | – | – | Ki [1]: 19.7 ± 2.5 nM; Ki [17]: 365 ± 69 nM; Ki [11, 22]: 4.64 ± 0.586 µM
